Laboratory results taken from patent publication US20240270744A1 (Hoffmann-La Roche Inc., priority 2021, published 2024).
Like-named read-outs stand apart in the source and are kept apart here.

Columns and labels:
h-GABA-A α2β2γ1 = h-GABA-A α2β2γ1 (Homo sapiens (Human), UniProt P47869+Q8N1C3); test: Two-electrode voltage clamp electrophysiology in Xenopus oocytes expressing GABAA receptors; format: cell-based; conditions: Table 2; for Efficacy (GABA) %: % modulation of GABA EC20 = 100*(Fold increase-1), compound at 30-fold Ki; for Fold increase h-GABA-A α2β2γ1 oocyte @ 30-fold Ki: GABA EC20, test compound at approx. 30-fold its Ki α2β2γ1, Xenopus oocytes, -80 mV
Description: Xenopus laevis oocytes at maturation stages V-VI were used for the expression of cloned mRNA encoding GABAA receptor subunits. Oocytes ready for RNA micro-injection were bought from Ecocyte, Castrop-Rauxel, Germany and stored in modified Barth's medium (composition in mM: NaCl 88, KCl 1, NaHCO3 2.4, HEPES 10, MgSO4 0.82, CaNO3 0.33, CaCl2 0.33, pH=7.5) at 20° C. until the experiment.
Oocytes were plated in 96-well plates for microinjection using the Roboinject automated instrument (MultiChannelSystems, Reutlingen, Germany). Approximately 50 nL of an aqueous solution containing the RNA transcripts for the subunits of the desired GABAA receptor subtype was injected into each oocyte. […] Oocytes were kept in modified Barth's medium (composition in mM: NaCl 88, KCl 1, NaHCO3 […], HEPES 10, MgSO4 0.82, CaNO3 0.33, CaCl2 0.33, pH=7.5) at 20° C. until the experiment.
Electrophysiological experiments were performed using the Roboocyte instrument (MultiChannelSystems, Reutlingen, Germany) on days 3 to 5 after the micro-injection of mRNA. During the experiment the oocytes were constantly superfused by a solution containing (in mM) NaCl 90, KCl 1, HEPES 5, MgCl2 1, CaCl2 1 (pH 7.4). Oocytes were impaled by two glass microelectrodes (resistance: […]) which were filled with a solution containing KCl 1M+K-acetate 1.5 M and voltage-clamped to −80 mV. The recordings were performed at room temperature using the Roboocyte two-electrode voltage clamp system (Multichannelsystem). After an initial equilibration period of 1.5 min GABA was added for 1.5 min at a concentration evoking approximately 20% of a maximal current response (EC20). After another rest interval of 2.5 min GABA was again added evoking a response of similar amplitude and shape. […] Current traces were recorded at a digitization rate of 10 Hz during and shortly before and after the GABA application.
Each compound and concentration was tested on at least 3 oocytes. Different oocytes were used for different compound concentrations.
For the analysis, the digitized current traces of the first and second GABA response were superimposed and, if necessary, rescaled to equal maximal amplitudes. The ratio between the two responses during the time interval of test compound application was calculated point by point. The extremum of the resulting “ratio trace” was taken as the efficacy (“Fold increase”) of the compound expressed as “% modulation of GABA EC20” (100*(Fold increase−1)).

[1] = biological target: human GABAA α1β3γ2 receptor (Homo sapiens (Human), UniProt P14867+P18507); test: Radioligand binding assay, competition for [3H]Flumazenil, γ2-containing GABAA subtypes; conditions: read-out: Ki h-GABAA α1β3γ2
Description: The affinity of compounds at GABAA γ2 subunit-containing receptors was measured by competition for [^3H]Flumazenil (81.1 Ci/mmol; Roche) binding to HEK293F cells expressing human (transiently transfected) receptors of composition α1β3γ2.
Harvested pellets from HEK293F cells expressing the different GABAA γ2 receptor subtypes were resuspended in Mannitol Buffer pH 7.2-7.4 and processed as described above for the cells expressing the GABAA γ1 subunit-containing receptors.
Assays were incubated to equilibrium for 1 hour at 4° C. and harvested onto GF/C uni-filters (Packard) by filtration using a Packard harvester and washing with ice-cold wash buffer (50 mM Tris; pH 7.5). After anhydrousing, filter-retained radioactivity was detected by liquid scintillation counting. Ki values were calculated using Excel-Fit (Microsoft) and are the means of two determinations.

[2] = Table 1, [3H]Flumazenil displacement, HEK293F cells, mean of two determinations

Compound: C[C@@H]1N=C(c2c(F)cccc2F)c2c(cnc(C(F)(F)F)c2Cl)-n2nc(C(=O)N3CC(C)(O)C3)nc21 [Example 10, [(7S)-11-chloro-9-(2,6-difluorophenyl)-7-methyl-12-(trifluoromethyl)-2,3,5,8,13-pentazatricyclo[8.4.0.02,6]tetradeca-1(10),3,5,8,11,13-hexaen-4-yl]-(3-hydroxy-3-methyl-azetidin-1-yl)methanone]
- Efficacy (GABA) % (h-GABA-A α2β2γ1): 82%
- Fold increase h-GABA-A α2β2γ1 oocyte @ 30-fold Ki (h-GABA-A α2β2γ1): 1.82
- Ki [1, 2]: 4.61 µM
- Ki ([1]; Table 3, reference compounds comparison): 4.61 µM

Compound: C[C@H](O)CNC(=O)c1nc2n(n1)-c1cnc(C(F)(F)F)c(Cl)c1C(c1c(F)cccc1F)=N[C@H]2C [Example 14, (7S)-11-chloro-9-(2,6-difluorophenyl)-N-[(2S)-2-hydroxypropyl]-7-methyl-12-(trifluoromethyl)-2,3,5,8,13-pentazatricyclo[8.4.0.02,6]tetradeca-1(10),3,5,8,11,13-hexaene-4-carboxamide]
- Efficacy (GABA) % (h-GABA-A α2β2γ1): 158%
- Fold increase h-GABA-A α2β2γ1 oocyte @ 30-fold Ki (h-GABA-A α2β2γ1): 2.58
- Ki [1, 2]: 8.76 µM

Compound: C[C@@H]1N=C(c2c(F)cccc2F)c2c(cnc(C(F)(F)F)c2Cl)-n2c1nc1c2CCC1 [Example 20, (10S)-6-chloro-8-(2,6-difluorophenyl)-10-methyl-5-(trifluoromethyl)-1,4,9,12-tetrazatetracyclo[9.6.0.02,7.013,17]heptadeca-2(7),3,5,8,11,13(17)-hexaene]
- Efficacy (GABA) % (h-GABA-A α2β2γ1): 108%
- Fold increase h-GABA-A α2β2γ1 oocyte @ 30-fold Ki (h-GABA-A α2β2γ1): 2.08
- Ki [1, 2]: 1.09 µM

Compound: C[C@@H]1N=C(c2c(F)cccc2F)c2c(cnc(C(F)(F)F)c2Cl)-n2nc(C(=O)N3CC(F)C3)nc21 [Example 7, [(7S)-11-chloro-9-(2,6-difluorophenyl)-7-methyl-12-(trifluoromethyl)-2,3,5,8,13-pentazatricyclo[8.4.0.02,6]tetradeca-1(10),3,5,8,11,13-hexaen-4-yl]-(3-fluoroazetidin-1-yl)methanone]
- Efficacy (GABA) % (h-GABA-A α2β2γ1): 85%
- Fold increase h-GABA-A α2β2γ1 oocyte @ 30-fold Ki (h-GABA-A α2β2γ1): 1.85
- Ki [1, 2]: 5.1 µM

Compound: Cc1nnc2n1-c1cnc(Cl)c(Cl)c1C(c1c(F)cccc1F)=N[C@H]2C [Example 1, (7S)-11,12-dichloro-9-(2,6-difluorophenyl)-3,7-dimethyl-2,4,5,8,13-pentazatricyclo[8.4.0.02,6]tetradeca-1(10),3,5,8,11,13-hexaene]
- Efficacy (GABA) % (h-GABA-A α2β2γ1): 55%
- Fold increase h-GABA-A α2β2γ1 oocyte @ 30-fold Ki (h-GABA-A α2β2γ1): 1.55
- Ki [1, 2]: 1.09 µM

Compound: C[C@@H]1N=C(c2c(F)cccc2F)c2c(cnc(C(F)(F)F)c2Cl)-n2nc(C(=O)N3CCC3)nc21 [Example 6, azetidin-1-yl-[(7S)-11-chloro-9-(2,6-difluorophenyl)-7-methyl-12-(trifluoromethyl)-2,3,5,8,13-pentazatricyclo[8.4.0.02,6]tetradeca-1(10),3,5,8,11,13-hexaen-4-yl]methanone]
- Efficacy (GABA) % (h-GABA-A α2β2γ1): 91%
- Fold increase h-GABA-A α2β2γ1 oocyte @ 30-fold Ki (h-GABA-A α2β2γ1): 1.91
- Ki [1, 2]: 10.2 µM
